Reference: PubChem BioAssay (NCI)
Values joined by “and” are separate entries in the source; they are usually repeats but may differ in a detail not shown here. Equal entries are not always repeated.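 48-hour exposure; five concentrations; linearly interpolated endpoints. GI50: concentration for 50% inhibition of growth. Definition used: TGI = concentration required for complete inhibition of growth.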 Where a SMILES comes first, the peptide text is derived from it. The star is where a group is joined. Cbz = O=C(OCc1ccccc1)*; Boc = CC(C)(C)OC(=O)*; OBn = c1ccc(CO*)cc1

Key:
Experiment in all cases: NCI tumour cell line growth inhibition, 48 h; in the data active = GI50 below about 0.43 µM; inactive = the rest
MCF7 breast = test system: MCF7 breast
COLO 205 colon = test system: COLO 205 colon
NCI/ADR-RES ovarian = test system: NCI/ADR-RES ovarian
K-562 leukemia = test system: K-562 leukemia
HOP-62 NSCLC = test system: HOP-62 NSCLC
MDA-N = test system: MDA-N
TK-10 renal = test system: TK-10 renal
HOP-92 NSCLC = test system: HOP-92 NSCLC
HCC-2998 colon = test system: HCC-2998 colon

Cc1cc2c(cc1-c1cc3c(cc1C)C(C(C)C)=C(O)C(=O)/C3=C\Nc1cccc3c(N)cccc13)/C(=C/Nc1cccc3c(N)cccc13)C(=O)C(O)=C2C(C)C
> 100 µM: TGI (MCF7 breast) | TGI (COLO 205 colon) | TGI (NCI/ADR-RES ovarian) | TGI (K-562 leukemia) | TGI (HOP-62 NSCLC) | TGI (MDA-N) | TGI (TK-10 renal) | TGI (HOP-92 NSCLC) | TGI (HCC-2998 colon)

C/C(O)=C/c1nc2sc(C)c(C)c2c(=O)s1
> 100 µM: TGI (MCF7 breast) | TGI (COLO 205 colon) | TGI (NCI/ADR-RES ovarian) | TGI (K-562 leukemia) | TGI (HOP-62 NSCLC) | TGI (MDA-N) | TGI (TK-10 renal) | TGI (HOP-92 NSCLC)

CN(Cc1cnc2nc(N)nc(N)c2n1)c1ccc(C(=O)NC2CCCCC2)cc1
> 100 µM: TGI (MCF7 breast) | TGI (COLO 205 colon) | TGI (NCI/ADR-RES ovarian) | TGI (K-562 leukemia) | TGI (HOP-62 NSCLC) | TGI (MDA-N) | TGI (TK-10 renal)

CSc1ccc(C=C2N=C(c3ccccc3)N(c3cc(C(=O)c4ccccc4)ccc3N3C(=O)/C(=C/c4ccc(SC)cc4)N=C3c3ccccc3)C2=O)cc1
> 100 µM: TGI (MCF7 breast) | TGI (COLO 205 colon) | TGI (NCI/ADR-RES ovarian) | TGI (K-562 leukemia) | TGI (HOP-62 NSCLC) | TGI (MDA-N) | TGI (TK-10 renal) | TGI (HOP-92 NSCLC) | TGI (HCC-2998 colon)

COC(=O)C(CCCCNC(=O)OCc1ccccc1)NC(=O)C(CCC(=O)OCc1ccccc1)NC(=O)OC(C)(C)C (stereo unspecified) (Boc-Glu(OBn)-Lys(Cbz)-OMe; configuration not given here)
> 100 µM: TGI (MCF7 breast) | TGI (COLO 205 colon) | TGI (NCI/ADR-RES ovarian) | TGI (K-562 leukemia) | TGI (MDA-N) | TGI (TK-10 renal) | TGI (HOP-92 NSCLC)
32.2 µM: TGI (HOP-62 NSCLC)

Cc1ccc(NC(=O)c2cc(S(=O)(=O)N3CCNNC3=O)c(S)cc2Cl)cc1
> 100 µM: TGI (MCF7 breast) | TGI (COLO 205 colon) | TGI (NCI/ADR-RES ovarian) | TGI (K-562 leukemia) | TGI (MDA-N) | TGI (TK-10 renal) | TGI (HOP-92 NSCLC) | TGI (HCC-2998 colon)

COC(=O)[C@@H](COC(=O)/C=C/c1ccc(OC(C)=O)c(OC(C)=O)c1)NC(=O)/C=C/c1ccc(OC(C)=O)c(OC(C)=O)c1
50.3 µM: TGI (MDA-N)
76.4 µM: TGI (HCC-2998 colon)
75.5 µM: TGI (HOP-62 NSCLC)
> 100 µM: TGI (MCF7 breast) | TGI (NCI/ADR-RES ovarian) | TGI (K-562 leukemia) | TGI (HOP-92 NSCLC)
35.3 µM: TGI (COLO 205 colon)

CC(=O)Nc1ccccc1S(=O)(=O)c1c(-c2c(C)c(Cl)c(C)c(Cl)c2C)noc1C
73.7 µM: TGI (TK-10 renal)
> 100 µM: TGI (MCF7 breast) | TGI (COLO 205 colon) | TGI (NCI/ADR-RES ovarian) | TGI (K-562 leukemia) | TGI (MDA-N) | TGI (HCC-2998 colon)
50 µM: TGI (HOP-62 NSCLC)

COc1ccc(C(c2ccccc2)N2C(=O)CCC2C(=O)O)cc1OC (stereo unspecified)
> 100 µM: TGI (MCF7 breast) | TGI (COLO 205 colon) | TGI (NCI/ADR-RES ovarian) | TGI (K-562 leukemia) | TGI (HOP-62 NSCLC) | TGI (MDA-N) | TGI (TK-10 renal) | TGI (HOP-92 NSCLC) | TGI (HCC-2998 colon)

CC1(C)O[C@@H]([C@@H](O)[C@H](O)C2SCCCS2)[C@@H](CO)O1
> 100 µM: TGI (COLO 205 colon) | TGI (NCI/ADR-RES ovarian) | TGI (K-562 leukemia) | TGI (HOP-62 NSCLC) | TGI (MDA-N) | TGI (TK-10 renal) | TGI (HOP-92 NSCLC)

O=C(Nc1ccc(-n2cc(-c3ccncc3)c(-c3ccc(O)c(Cl)c3)n2)cc1)c1ccc(Cl)c(Cl)c1
inactive: GI50 (MCF7 breast) 2.04 µM | GI50 (COLO 205 colon) > 32.5 µM | GI50 (NCI/ADR-RES ovarian) 2.02 µM | GI50 (K-562 leukemia) 0.966 µM | GI50 (HOP-62 NSCLC) 2 µM | GI50 (TK-10 renal) 1.52 µM | GI50 (HOP-92 NSCLC) 0.819 µM | GI50 (HCC-2998 colon) 2.03 µM
> 32.5 µM: TGI (MCF7 breast) | TGI (COLO 205 colon) | TGI (NCI/ADR-RES ovarian) | TGI (K-562 leukemia) | TGI (HOP-62 NSCLC) | TGI (TK-10 renal) | TGI (HCC-2998 colon)
20.5 µM: TGI (HOP-92 NSCLC)

COc1ccc(-n2c(-c3ccccc3)cc(-c3cccs3)c2-c2cccs2)cc1
> 100 µM: TGI (MCF7 breast) | TGI (COLO 205 colon) | TGI (NCI/ADR-RES ovarian) | TGI (HOP-62 NSCLC) | TGI (TK-10 renal) | TGI (HOP-92 NSCLC) | TGI (HCC-2998 colon)

N=C(N)c1ccc(-c2ccc(-c3ccccc3)o2)cc1
3.73 µM: TGI (TK-10 renal)
4.99 µM: TGI (K-562 leukemia)
4.14 µM: TGI (HOP-92 NSCLC)
5.85 µM: TGI (NCI/ADR-RES ovarian)
inactive: GI50 (COLO 205 colon) 1.66 µM | GI50 (NCI/ADR-RES ovarian) 2.2 µM | GI50 (K-562 leukemia) 2.22 µM | GI50 (HOP-62 NSCLC) 1.98 µM | GI50 (TK-10 renal) 1.89 µM | GI50 (HOP-92 NSCLC) 1.95 µM | GI50 (HCC-2998 colon) 1.51 µM
5.13 µM: TGI (HOP-62 NSCLC)
3.42 µM: TGI (COLO 205 colon)
3.15 µM: TGI (HCC-2998 colon)

OCC1OC(NC(=S)NCSCCC(F)(F)C(F)(F)C(F)(F)C(F)(F)C(F)(F)C(F)(F)F)C(O)C(O)C1O (stereo unspecified)
66.4 µM: TGI (HOP-92 NSCLC)
56.4 µM: TGI (K-562 leukemia)
> 100 µM: TGI (MCF7 breast) | TGI (COLO 205 colon) | TGI (NCI/ADR-RES ovarian) | TGI (HOP-62 NSCLC) | TGI (MDA-N) | TGI (TK-10 renal) | TGI (HCC-2998 colon)

COc1cc(-c2c(C(C)=O)c(-c3ccccc3)n(C3OC(COC(C)=O)C(OC(C)=O)C(OC(C)=O)C3OC(C)=O)c(=S)c2C#N)ccc1O (stereo unspecified)
> 100 µM and 79.5 µM: TGI (HCC-2998 colon)
> 100 µM: TGI (MCF7 breast) | TGI (COLO 205 colon) | TGI (NCI/ADR-RES ovarian) | TGI (K-562 leukemia) | TGI (HOP-62 NSCLC) | TGI (MDA-N) | TGI (HOP-92 NSCLC)
inactive: GI50 (HCC-2998 colon) > 100 µM and 29.6 µM

Nc1nc(Cl)c(N)c(NCC2(CO)CC(O)C2)n1 (stereo unspecified)
> 100 µM: TGI (MCF7 breast) | TGI (COLO 205 colon) | TGI (NCI/ADR-RES ovarian) | TGI (K-562 leukemia) | TGI (HOP-62 NSCLC) | TGI (MDA-N) | TGI (TK-10 renal) | TGI (HOP-92 NSCLC) | TGI (HCC-2998 colon)

O=C(CCl)Nc1ccc(-c2nc3ccccc3s2)cc1
7.89 µM: TGI (MDA-N)
2.39 µM: TGI (MCF7 breast)
3.82 µM: TGI (COLO 205 colon)
12.3 µM: TGI (HOP-62 NSCLC)
6.08 µM: TGI (HOP-92 NSCLC)
> 56.2 µM: TGI (NCI/ADR-RES ovarian)
5.91 µM: TGI (HCC-2998 colon)
22.6 µM: TGI (TK-10 renal)
4.56 µM: TGI (K-562 leukemia)

COC1(CCO)CC=CCC1(CCO)OC (stereo unspecified)
> 100 µM: TGI (MCF7 breast) | TGI (COLO 205 colon) | TGI (NCI/ADR-RES ovarian) | TGI (K-562 leukemia) | TGI (HOP-62 NSCLC) | TGI (MDA-N) | TGI (TK-10 renal) | TGI (HOP-92 NSCLC)

CCOC(=O)CC(=O)Nc1c(C(=O)OCC)sc2nc(SC)nc(Nc3ccc(OC)c(OC)c3)c12
> 100 µM: TGI (MCF7 breast) | TGI (COLO 205 colon) | TGI (NCI/ADR-RES ovarian) | TGI (MDA-N) | TGI (TK-10 renal) | TGI (HCC-2998 colon)
33.7 µM: TGI (HOP-92 NSCLC)

C[N+](C)(C)C(Cc1c[nH]c(=S)[nH]1)C(=O)O (stereo unspecified)
> 100 µM: TGI (MCF7 breast) | TGI (COLO 205 colon) | TGI (NCI/ADR-RES ovarian) | TGI (K-562 leukemia) | TGI (HOP-62 NSCLC) | TGI (MDA-N) | TGI (TK-10 renal) | TGI (HOP-92 NSCLC) | TGI (HCC-2998 colon)

CCCN=C1S/C(=C/c2ccc(OC)c(OC)c2)C(=O)N1c1ccccc1
55.2 µM: TGI (TK-10 renal)
> 100 µM: TGI (MCF7 breast) | TGI (COLO 205 colon) | TGI (NCI/ADR-RES ovarian) | TGI (K-562 leukemia) | TGI (MDA-N) | TGI (HOP-92 NSCLC) | TGI (HCC-2998 colon)
15.2 µM: TGI (HOP-62 NSCLC)

O=C1c2ccccc2-c2ccc(N(Cc3ccc(Br)cc3)Cc3ccc(Br)cc3)cc21
> 100 µM: TGI (MCF7 breast) | TGI (COLO 205 colon) | TGI (NCI/ADR-RES ovarian) | TGI (K-562 leukemia) | TGI (HOP-62 NSCLC) | TGI (MDA-N) | TGI (TK-10 renal) | TGI (HOP-92 NSCLC) | TGI (HCC-2998 colon)
